Experimental data as given in patent US8883782B2, “Spiro-tetracyclic ring compounds as beta-secretase modulators and methods of use” (Amgen Inc., priority 2010, dated 2014).
Read-outs that look alike come from different tables or passages of the source.

Legend:
[1] = biological target: Beta Secretase enzyme (BACE) (Homo sapiens, UniProt P56817); experiment: In vitro enzymatic BACE FRET (fluorescence resonance energy transfer) assay; format: biochemical
How it was run: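 Acetate buffer (0.05 M, pH 4.2), 10% DMSO final, 100 uM nonionic detergent genapol. Substrate addition (50 nM FRET peptide) initiates; one-hour incubation; Tris raises pH to neutrality before fluorescence measurement.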

[2] = test system: Aβ40 in conditioned medium of cells stably expressing Amyloid Precursor Protein (APP); experiment: In vitro BACE cell-based assay (Aβ40 in conditioned medium, sandwich ELISA); settings: Homo sapiens
How it was run: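 Step two: 10-point compound titration added, starting 100 μM or 10 μM, 0.1% DMSO. Step three: medium Aβ40 measured by ELISA, capture 3 h and detection 2 h at 4° C, TRF read.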

[3] = average IC50, enzyme assay, read-out: BACE 1 FRET assay
[4] = HEK293, average IC50, HEK cells, read-out: HEK cell assay
[5] = HEK293, average IC50, read-out: HEK cell assay

Chain of Beta Secretase enzyme (BACE) (P56817 46-501, species assumed): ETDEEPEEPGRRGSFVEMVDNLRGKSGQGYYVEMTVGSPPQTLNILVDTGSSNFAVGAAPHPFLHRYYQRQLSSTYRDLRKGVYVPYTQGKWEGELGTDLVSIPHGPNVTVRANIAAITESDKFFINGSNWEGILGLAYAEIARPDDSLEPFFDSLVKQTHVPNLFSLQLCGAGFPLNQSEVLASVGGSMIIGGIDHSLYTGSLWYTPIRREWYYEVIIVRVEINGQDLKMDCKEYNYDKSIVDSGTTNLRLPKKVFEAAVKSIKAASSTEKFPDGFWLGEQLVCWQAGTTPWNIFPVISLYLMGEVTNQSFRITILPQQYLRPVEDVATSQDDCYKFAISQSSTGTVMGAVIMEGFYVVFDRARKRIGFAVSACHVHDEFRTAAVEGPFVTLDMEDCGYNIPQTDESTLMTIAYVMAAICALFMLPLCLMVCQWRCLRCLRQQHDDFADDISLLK

IC50 [1, 3] [µM] | IC50 [2, 4] [µM] | IC50 [2, 5] [µM] | SMILES | IC50 ([1]; BACE 1 FRET assay (uM)) [µM] | IC50 ([2]; HEK293, read-out: HEK cell assay (uM), average IC50, HEK cells) [µM]
0.0117 | 0.0169 | – | Cc1ccc(-c2cc(F)c3c(c2)[C@]2(COC(N)=N2)c2cc(OCC4(C)COC4)ccc2O3)cn1 [Example 440, (4S)-4′-fluoro-7′-((3-methyl-3-oxetanyl)methoxy)-2′-(6-methyl-3-pyridinyl)spiro[1,3-oxazole-4,9′-xanthen]-2-amine] | – | –
0.0094 | 0.138 | – | NC1=N[C@@]2(CO1)c1cc(-c3ccc(F)cc3)ccc1Oc1cnc(C3=CCOCC3)cc12 [Example 394, (5S)-3-(3,6-dihydro-2H-pyran-4-yl)-7-(4-fluorophenyl)spiro[chromeno[2,3-c]pyridine-5,4′-[1,3]oxazol]-2′-amine] | – | –
0.0018 | – | 0.0789 | Cn1cc(-c2cc3c(cc2F)Oc2ccc(-c4cccc(Cl)c4)cc2[C@@]32COC(N)=N2)cn1 [Example 313, (4S)-7′-(3-chlorophenyl)-3′-fluoro-2′-(1-methyl-1H-pyrazol-4-yl)spiro[1,3-oxazole-4,9′-xanthen]-2-amine] | – | –
0.0061 | 2.95 | – | NC1=NC2(CS1)c1cc(-c3cccnc3F)ccc1Oc1c2cc(Cl)nc1F (centres unmarked) [Example 611, 3-chloro-1-fluoro-7-(2-fluoro-3-pyridinyl)spiro[chromeno[2,3-c]pyridine-5,4′-[1,3]thiazol]-2′-amine] | – | –
0.002 | – | 0.0036 | CC1(C#Cc2cnc3c(c2)[C@@]2(COC(N)=N2)c2cc(-c4cccnc4F)c(F)cc2O3)COC1 [compound 108] | – | –
– | – | – | NC1=N[C@@]2(CO1)c1cc(-c3cnccc3F)ccc1Oc1cnc(C3=CCOCC3)cc12 [Example 391, (5S)-3-(3,6-dihydro-2H-pyran-4-yl)-7-(4-fluoro-3-pyridinyl)spiro[chromeno[2,3-c]pyridine-5,4′-[1,3]oxazol]-2′-amine] | 0.0007 | 0.0058
0.0093 | – | 0.117 | N#Cc1cccc(-c2cc3c(cn2)Oc2c(F)cc(C4=CCOCC4)cc2[C@]32COC(N)=N2)c1 [Example 308, 3-((5S)-2′-amino-7-(3,6-dihydro-2H-pyran-4-yl)-9-fluorospiro[chromeno[2,3-c]pyridine-5,4′-[1,3]oxazol]-3-yl)benzonitrile] | – | –
0.0009 | 0.013 | – | COC(C)(C)C#Cc1cnc2c(c1)[C@]1(COC(N)=N1)c1cc(-c3cncc(F)c3)c(F)cc1O2 [Example 641, (5S)-8-fluoro-7-(5-fluoro-3-pyridinyl)-3-(3-methoxy-3-methyl-1-butyn-1-yl)spiro[chromeno[2,3-b]pyridine-5,4′-[1,3]oxazol]-2′-amine] | – | –
0.019 | 0.14 | – | COC(C)(C)C#Cc1ccc2c(c1)[C@@]1(CSC(N)=N1)c1cc(-c3cccnc3)cnc1O2 [Example 671, (5S)-7-(3-methoxy-3-methyl-1-butyn-1-yl)-3-(3-pyridinyl)spiro[chromeno[2,3-b]pyridine-5,4′-[1,3]thiazol]-2′-amine] | – | –
0.0018 | – | 0.171 | CC#Cc1cncc(-c2ccc3c(c2)[C@@]2(CSC(N)=N2)c2cc(-c4cncc(C#CC)c4)cnc2O3)c1 [Example 730, (5S)-3,7-bis(5-(1-propyn-1-yl)-3-pyridinyl)spiro[chromeno[2,3-b]pyridine-5,4′-[1,3]thiazol]-2′-amine] | – | –
0.0029 | – | 0.0104 | C[C@@H]1CN(c2cc(F)c3c(c2)[C@]2(COC(N)=N2)c2cc(-c4cncc(F)c4)ccc2O3)C[C@H](C)O1 [Example 274, (4S)-2′-((2R,6S)-2,6-dimethyl-4-morpholinyl)-4′-fluoro-7′-(5-fluoro-3-pyridinyl)spiro[1,3-oxazole-4,9′-xanthen]-2-amine] | – | –
0.0019 | – | 0.0109 | NC1=N[C@@]2(CO1)c1cc(-c3ccc(F)nc3)ccc1Oc1c(F)cc(C3=CCOCC3)cc12 [Example 260, (4S)-2′-(3,6-dihydro-2H-pyran-4-yl)-4′-fluoro-7′-(6-fluoro-3-pyridinyl)spiro[1,3-oxazole-4,9′-xanthen]-2-amine] | – | –
0.0337 | – | 0.751 | Cc1cccc(Oc2ccc3c(c2)[C@@]2(COC(N)=N2)c2cc(C4=CCOCC4)cc(F)c2O3)n1 [Example 1063, (4S)-2′-(3,6-dihydro-2H-pyran-4-yl)-4′-fluoro-7′-((6-methyl-2-pyridinyl)oxy)spiro[1,3-oxazole-4,9′-xanthen]-2-amine] | – | –
0.0052 | – | 0.238 | CC(C)(O)C#Cc1cncc(-c2ccc3c(c2)[C@@]2(COC(N)=N2)c2cc(C4=CCCOC4)ncc2O3)c1 [Example 819, 4-(5-((5S)-2′-amino-3-(5,6-dihydro-2H-pyran-3-yl)spiro[chromeno[2,3-c]pyridine-5,4′-[1,3]oxazol]-7-yl)-3-pyridinyl)-2-methyl-3-butyn-2-ol] | – | –
0.0012 | 0.0182 | – | NC1=N[C@@]2(CO1)c1cc(-c3cccnc3F)ccc1Oc1cnc(-c3cncc(F)c3)cc12 [Example 569, (5S)-7-(2-fluoro-3-pyridinyl)-3-(5-fluoro-3-pyridinyl)spiro[chromeno[2,3-c]pyridine-5,4′-[1,3]oxazol]-2′-amine] | – | –
0.0002 | 0.004 | – | NC1=N[C@@]2(CO1)c1cc(-c3cccnc3F)ccc1Oc1c2cc(N2CCC(F)(F)C2)nc1F [Example 918, (S)-3-(3,3-difluoropyrrolidin-1-yl)-1-fluoro-7-(2-fluoropyridin-3-yl)-5′-H-spiro[chromeno[2,3-c]pyridine-5,4′-oxazol]-2′-amine] | – | –
0.0003 | 0.011 | – | CC(C)(C#N)COc1cc(F)c2c(c1)[C@]1(COC(N)=N1)c1cc(-c3cccnc3F)c(F)cc1O2 [Example 862, 3-(((4S)-2-amino-4′,6′-difluoro-7′-(2-fluoro-3-pyridinyl)spiro[1,3-oxazole-4,9′-xanthen]-2′-yl)oxy)-2,2-dimethylpropanenitrile] | – | –
0.0077 | 0.18 | – | NC1=N[C@@]2(CO1)c1cc(-c3cccnc3)ccc1Oc1c2cc(-c2cccnc2)[nH]c1=O [Example 107, (S)-2′-amino-3,7-di(pyridin-3-yl)-5′H-spiro[chromeno[2,3-c]pyridine-5,4′-oxazol]-1(2H)-one] | – | –
0.0021 | 0.0143 | – | NC1=N[C@@]2(CO1)c1cc(-c3cccnc3F)ccc1Oc1ncc(N3CCC(F)(F)CC3)cc12 [Example 478, (5S)-3-(4,4-difluoro-1-piperidinyl)-7-(2-fluoro-3-pyridinyl)spiro[chromeno[2,3-b]pyridine-5,4′-[1,3]oxazol]-2′-amine] | – | –
0.0059 | – | 0.0294 | CC1(C)C[C@H](c2cc3c(cn2)Oc2ccc(-c4cccnc4F)cc2[C@@]32COC(N)=N2)CCO1 [Example 377, (5S)-3-((4R)-2,2-dimethyltetrahydro-2H-pyran-4-yl)-7-(2-fluoro-3-pyridinyl)spiro[chromeno[2,3-c]pyridine-5,4′-[1,3]oxazol]-2′-amine] | – | –
0.0023 | – | 0.044 | NC1=N[C@@]2(CS1)c1cc(-c3cnccc3F)ccc1Oc1ncc(-c3cccnc3)cc12 [Example 769, (5S)-7-(4-fluoro-3-pyridinyl)-3-(3-pyridinyl)spiro[chromeno[2,3-b]pyridine-5,4′-[1,3]thiazol]-2′-amine] | – | –

SMILES | IC50 [1, 3] [µM] | IC50 [2, 4] [µM] | IC50 [2, 5] [µM] | IC50 ([1]; BACE 1 FRET assay (uM)) [µM] | IC50 ([2]; HEK293, read-out: HEK cell assay (uM), average IC50, HEK cells) [µM]
C[Si](C)(C)c1cc2c(nc1F)Oc1ccc(-c3cccnc3F)cc1[C@@]21COC(N)=N1 [Example 146, (5S)-2-fluoro-7-(2-fluoro-3-pyridinyl)-3-(trimethylsilyl)spiro[chromeno[2,3-b]pyridine-5,4′-[1,3]oxazol]-2′-amine] | 0.0123 | – | 0.169 | – | –
